These molecules were tested on IFNα-induced pSTAT5 (pY694) in CD3 positive cells of human whole blood (assay: IFNα-Induced STAT Phosphorylation in Human Whole Blood). Conditions: Homo sapiens, 1 h compound incubation, 1000 U/mL recombinant human IFNα A/D for 15 min, pSTAT5 in CD3 positive population, read-out: Human WB IFNα-Induced Stat Phosph. (IC50).
Type: cell-based
Experimental: IFNα-Induced STAT Phosphorylation in Human Whole Blood
After an hour long incubation with compound, human whole blood (drawn with either EDTA or ACD-A as anti-coagulant) was stimulated with 1000 U/mL recombinant human IFNα A/D (R&D Systems 11200-2) for 15 min. The stimulation was stopped by adding Fix/Lyse buffer (BD 558049). Cells were stained with a CD3 FITC antibody (BD 555916), washed, and permeabilized on ice using Perm III buffer (BD 558050). Cells were then stained with an Alexa-Fluor 647 pSTAT5 (pY694) antibody (BD 612599) for 30 min prior to analysis on the FACS Canto II. The amount of pSTAT5 expression was quantitated by median fluorescence intensity after gating on the CD3 positive population.
IFNα-Induced STAT Phosphorylation in Human Whole Blood Inhibition Data ND—no data available

| IC50 [nM] | SMILES |
| --- | --- |
| 200 | [2H]C([2H])([2H])NC(=O)c1nnc(NC(=O)C2CC2)cc1Nc1cccc(-c2ccn(CCNC(=O)COC)n2)c1OC [Example 469] |
| 510 | [2H]C([2H])([2H])NC(=O)c1nnc(NC(=O)C2CC2)cc1Nc1cc(F)cc(-c2nc(CN3CCOCC3)no2)c1OC [Example 230] |
| > 10000 | [2H]C([2H])([2H])NC(=O)c1nnc(NC(=O)C2CC2)cc1Nc1cccc(-c2ncc(C(=O)N3CCc4ccccc4C3)s2)c1OC [Example 298] |
| 30 | [2H]C([2H])([2H])NC(=O)c1nnc(NC(=O)C2CC2)cc1Nc1cccc(-c2ncc(C(=O)NCCCN3CCCC3=O)s2)c1OC [Example 293] |
| 3270 | [2H]C([2H])([2H])NC(=O)c1nnc(NC(=O)C2CC2)cc1Nc1cccc(-c2ncc(CC(=O)NCCCN(C)C)s2)c1OC [Example 252] |
| 150 | [2H]C([2H])([2H])NC(=O)c1nnc(NC(=O)C2CC2)cc1Nc1cc(F)cc(-c2cc(C(=O)N3CCN(C(C)C)CC3)n(C)n2)c1OC [Example 518] |
| 3600 | [2H]C([2H])([2H])NC(=O)c1nnc(Nc2cc(C)n(C)n2)cc1Nc1cc(F)cc(-c2cc(C(=O)NS(C)(=O)=O)n(C)n2)c1OC [Example 552] |
| 1800 | [2H]C([2H])([2H])NC(=O)c1nnc(NC(=O)C2CC2)cc1Nc1cccc(-c2nc([C@H](CO)NC(=O)COC)no2)c1OC [Example 202] |
| 60 | [2H]C([2H])([2H])NC(=O)c1nnc(NC(=O)C2CC2)cc1Nc1cccc(-c2cc(C(=O)N3CCN(C(C)C)CC3)n(C)n2)c1OC [Example 531] |
| 1550 | [2H]C([2H])([2H])NC(=O)c1nnc(NC(=O)C2CC2)cc1Nc1cccc(-c2nc(C3(NC(=O)CC#N)CC3)no2)c1OC [Example 151] |
| 21 | [2H]C([2H])([2H])NC(=O)c1cnc(NC(=O)C2CC2)cc1Nc1cccc(-c2noc(CN3CCN(S(C)(=O)=O)CC3)n2)c1OC [Example 95] |
| 220 | [2H]C([2H])([2H])NC(=O)c1nnc(NC(=O)C2CC2)cc1Nc1cccc(-c2cc(C)nn2CCNC(=O)COC)c1OC [Example 461] |
| 270 | [2H]C([2H])([2H])NC(=O)c1nnc(NC(=O)C2CC2)cc1Nc1cccc(-c2nc(C)c(C(=O)N3C[C@@H](C)O[C@@H](C)C3)s2)c1OC [Example 362] |
| 560 | [2H]C([2H])([2H])NC(=O)c1nnc(NC(=O)C2CC2)cc1Nc1cccc(-c2nc(CO)no2)c1OC [Example 174] |
| 200 | [2H]C([2H])([2H])NC(=O)c1nnc(NC(=O)C2CC2)cc1Nc1cccc(-c2ccn(CCNC(=O)CO)n2)c1OC [Example 467] |
| 110 | [2H]C([2H])([2H])NC(=O)c1nnc(NC(=O)C2CC2)cc1Nc1cccc(-c2nc(CN(C)S(C)(=O)=O)no2)c1OC [Example 169] |
| 7360 | [2H]C([2H])([2H])NC(=O)c1nnc(NC(=O)C2CC2)cc1Nc1cccc(-c2nc([C@@H](C)NC(=O)OC(C)(C)C)no2)c1OC [Example 193] |
| 100 | [2H]C([2H])([2H])NC(=O)c1nnc(NC(=O)C2CC2)cc1Nc1cccc(-c2ncc(C(=O)N3CCOCC3)s2)c1OC [Example 268] |
| > 10000 | [2H]C([2H])([2H])NC(=O)c1nnc(Nc2cnc(OC)cn2)cc1Nc1cccc(-c2csc(C(=O)N3CCOCC3)n2)c1OC [Example 564] |

| IC50 [nM] | SMILES |
| --- | --- |
| 130 | [2H]C([2H])([2H])NC(=O)c1nnc(Nc2cnn(C)n2)cc1Nc1cccc(-c2ncc(C(=O)N(C)C)s2)c1OC [Example 381] |
| 290 | COc1c(Nc2cc(NC(=O)C3CC3)nnc2C(N)=O)cccc1-c1ncc(C(=O)NCc2cccc(Cl)c2)o1 [Example 421] |
| 310 | COc1c(Nc2cc(NC(=O)C3CC3)nnc2C(N)=O)cccc1-c1ncc(C(=O)N2CCOCC2)o1 [Example 414] |
| 120 | [2H]C([2H])([2H])NC(=O)c1nnc(NC(=O)C2CC2)cc1Nc1cccc(-c2noc(CN3CCNCC3)n2)c1OC [Example 35] |
| 80 | [2H]C([2H])([2H])NC(=O)c1nnc(Nc2ccc(OC)nn2)cc1Nc1cccc(-c2nc(CN3CCOCC3)no2)c1OC [Example 238] |
| 2560 | [2H]C([2H])([2H])NC(=O)c1nnc(NC(=O)C2CC2)cc1Nc1cc(F)cc(-c2cc(C(=O)N3CCc4ccccc4C3)n(C)n2)c1OC [Example 512] |
| 150 | COCC(=O)NCCn1ncc(-c2cccc(Nc3cc(NC(=O)C4CC4)ncc3C(N)=O)c2OC)n1 [Example 445] |
| 40 | [2H]C([2H])([2H])NC(=O)c1nnc(NC(=O)C2CC2)cc1Nc1cccc(-c2cc(C(=O)N3CCN(C(C)=O)CC3)n(C)n2)c1OC [Example 493] |
| 150 | [2H]C([2H])([2H])NC(=O)c1nnc(NC(=O)C2CC2)cc1Nc1cccc(-c2nc(C)c(C(=O)N3CCS(=O)(=O)CC3)s2)c1OC [Example 372] |
| 110 | COCCNC(=O)c1cnc(-c2cccc(Nc3cc(NC(=O)C4CC4)nnc3C(N)=O)c2OC)s1 [Example 408] |
| 80 | [2H]C([2H])([2H])NC(=O)c1nnc(NC(=O)C2CC2)cc1Nc1cccc(-c2nc(C)c(C(=O)N3CCC(N(C)C)CC3)s2)c1OC [Example 354] |
| 110 | [2H]C([2H])([2H])NC(=O)c1nnc(NC(=O)C2CC2)cc1Nc1cc(F)cc(-c2cc(C(=O)N3CCC[C@H]3CO)n(C)n2)c1OC [Example 507] |
| 23 | COC(=O)N1CCN(Cc2nc(-c3cccc(Nc4cc(NC(=O)C5CC5)nnc4C(N)=O)c3OC)no2)CC1 [Example 39] |
| 150 | [2H]C([2H])([2H])NC(=O)c1nnc(NC(=O)C2CC2)cc1Nc1cccc(-c2cc(C(=O)N3CCN(O)CC3)n(C)n2)c1OC [Example 478] |
| 100 | [2H]C([2H])([2H])NC(=O)c1nnc(NC(=O)C2CC2)cc1Nc1cccc(-c2nc([C@@H](N)[C@@H](C)O)no2)c1OC [Example 189] |
| 490 | [2H]C([2H])([2H])NC(=O)c1nnc(Nc2cnn(C)n2)cc1Nc1cccc(-c2ncc(CO)s2)c1OC [Example 386] |
| 260 | [2H]C([2H])([2H])NC(=O)c1nnc(NC(=O)C2CC2)cc1Nc1cccc(-c2cc(C(=O)N3CC4CN(C)CC4C3)n(C)n2)c1OC (centres unmarked) [Example 491] |
| 230 | [2H]C([2H])([2H])NC(=O)c1cnc(NC(=O)CC)cc1Nc1cccc(-c2noc(COC)n2)c1OC [Example 88] |
| 1100 | [2H]C([2H])([2H])NC(=O)c1nnc(NC(=O)C2CC2)cc1Nc1cccc(-c2cc(C(=O)NCCC#N)n(C)n2)c1OC [Example 477] |

| IC50 [nM] | SMILES |
| --- | --- |
| 60 | [2H]C([2H])([2H])NC(=O)c1nnc(NC(=O)C2CC2)cc1Nc1cccc(-c2cc(C(=O)N(C)C)n(C)n2)c1OC [Example 483] |
| 80 | [2H]C([2H])([2H])NC(=O)c1nnc(NC(=O)C2CC2)cc1Nc1cccc(-c2nc(C)c(C(=O)N3CCOCC3)s2)c1OC [Example 356] |
| 50 | [2H]C([2H])([2H])NC(=O)c1nnc(NC(=O)C2CC2)cc1Nc1cccc(-c2ncc(C(=O)N3CC4CN(C)CC4C3)s2)c1OC (centres unmarked) [Example 274] |
| 5240 | [2H]C([2H])([2H])NC(=O)c1nnc(NC(=O)C2CC2)cc1Nc1cccc(-c2nc([C@@H](COC(C)(C)C)NC(=O)OC(C)(C)C)no2)c1OC [Example 219] |
| 560 | [2H]C([2H])([2H])NC(=O)c1nnc(Nc2ccc(OC)nn2)cc1Nc1cccc(-c2nc(C(=O)N(C)C)cs2)c1OC [Example 379] |
| 630 | [2H]C([2H])([2H])NC(=O)c1nnc(NC(=O)C2CC2)cc1Nc1cccc(-c2nc(C3(N)CC3)no2)c1OC [Example 156] |
| 1270 | [2H]C([2H])([2H])NC(=O)c1nnc(NC(=O)C2CC2)cc1Nc1cccc(-c2nc([C@H](NC(=O)CC)[C@H](C)O)no2)c1OC [Example 208] |
| 300 | [2H]C([2H])([2H])NC(=O)c1nnc(NC(=O)C2CC2)cc1Nc1cccc(-c2nc(CN(C)C(C)=O)no2)c1OC [Example 173] |
| 180 | COc1c(Nc2cc(NC(=O)C3CC3)nnc2C(N)=O)cccc1-c1nccs1 [Example 406] |
| 320 | [2H]C([2H])([2H])NC(=O)c1cnc(NC(=O)C2CC2)cc1Nc1cccc(-c2nc(COCc3ccccc3)no2)c1OC [Example 216] |
| 240 | [2H]C([2H])([2H])NC(=O)c1nnc(Nc2ccc(OC)nn2)cc1Nc1cccc(-c2ncc(CNS(C)(=O)=O)s2)c1OC [Example 390] |
| 2640 | [2H]C([2H])([2H])NC(=O)c1nnc(NC(=O)C2CC2)cc1Nc1cccc(-c2nc(CN3CCN(C(=O)OC(C)(C)C)CC3=O)no2)c1OC [Example 137] |
| 220 | [2H]C([2H])([2H])NC(=O)c1cnc(NC(=O)C2CC2)cc1Nc1cccc(-c2nc(CN3C[C@@H](C)O[C@@H](C)C3)no2)c1OC [Example 210] |
| 2890 | [2H]C([2H])([2H])NC(=O)c1nnc(NC(=O)C2CC2)cc1Nc1cccc(-c2cnn(CCNC(=O)CC3CCCO3)n2)c1OC (centres unmarked) [Example 438] |
| 300 | [2H]C([2H])([2H])NC(=O)c1nnc(NC(=O)C2CC2)cc1Nc1cccc(-c2ncc(CC(=O)N3CCOCC3)s2)c1OC [Example 253] |
| 1800 | [2H]C([2H])([2H])NC(=O)c1nnc(NC(=O)C2CC2)cc1Nc1cccc(-c2ncc(CC(=O)NCCOC)o2)c1OC [Example 411] |
| 110 | [2H]C([2H])([2H])NC(=O)c1nnc(NC(=O)C2CC2)cc1Nc1cccc(-c2noc(CN3CCC(O)CC3)n2)c1OC [Example 83] |
| 200 | [2H]C([2H])([2H])NC(=O)c1nnc(NC(=O)C2CC2)cc1Nc1cccc(-c2cc(C(C)(C)O)n(C)n2)c1OC [Example 487] |

From patent publication US12240840B2, “Amide-substituted heterocyclic compounds for the treatment of conditions related to the modulation of IL-12, IL-23 and/or IFN-alpha” (BRISTOL-MYERS SQUIBB COMPANY, priority 2018, dated 2025)
